In ChEMBL document CHEMBL1687752, “Impact of antifungal prophylaxis on colonization and azole susceptibility of Candida species” (2009):
≈ marks a conversion by molar mass, not a printed value.

Assays:
Format in all cases: functional
[1] = system: Nakaseomyces glabratus; test: Antifungal activity against 7 days cultured Candida glabrata isolated from neutropenic subject with AML or MDS stool receiving antifungal therapy for 37 days after 9 days of prophylaxis by broth microdilution method
[2] = system: Nakaseomyces glabratus; test: Antifungal activity against 56 days cultured Candida glabrata isolated from HSCT recipient with acute or chronic GVHD mouth receiving antifungal therapy for 172 days after 114 days of prophylaxis by broth microdilution method
[3] = system: Nakaseomyces glabratus; test: Antifungal activity against Candida glabrata isolated from HSCT recipients with acute or chronic GVHD receiving fluconazole assessed as maximum MIC by broth microdilution method
[4] = system: Nakaseomyces glabratus; test: Antifungal activity against 23 days cultured Candida glabrata isolated from neutropenic subject with AML or MDS stool receiving antifungal therapy for 25 days after 3 days of prophylaxis by broth microdilution method
[5] = system: Candida tropicalis; test: Antifungal activity against -3 days cultured Candida tropicalis isolated from neutropenic subject with AML or MDS pharynx receiving antifungal therapy for 45 days after 24 days of prophylaxis by broth microdilution method
[6] = system: Candida tropicalis; test: Antifungal activity against 2 days cultured Candida tropicalis isolated from neutropenic subject with AML or MDS pharynx receiving antifungal therapy for 45 days after 24 days of prophylaxis by broth microdilution method
[7] = system: Nakaseomyces glabratus; test: Antifungal activity against 25 days cultured Candida glabrata isolated from invasive fungal infected subject blood receiving antifungal therapy for 25 days after 3 days of prophylaxis by broth microdilution method
[8] = system: Nakaseomyces glabratus; test: Antifungal activity against Candida glabrata isolated from HSCT recipients with acute or chronic GVHD receiving posaconazole assessed as maximum MIC by broth microdilution method
[9] = system: Nakaseomyces glabratus; test: Antifungal activity against 176 days cultured Candida glabrata isolated from HSCT recipient with acute or chronic GVHD mouth receiving antifungal therapy for 172 days after 114 days of prophylaxis by broth microdilution method
[10] = system: Saccharomyces cerevisiae; test: Antifungal activity against Saccharomyces cerevisiae isolated from HSCT recipient 513 with acute or chronic GVHD mouth after 112 days prophylaxis by broth microdilution method
[11] = system: Nakaseomyces glabratus; test: Antifungal activity against Candida glabrata isolated from HSCT recipient 491 with acute or chronic GVHD mouth receiving antifungal drug after 112 days prophylaxis by broth microdilution method
[12] = system: Pichia kudriavzevii; test: Antifungal activity against 14 days cultured Candida krusei isolated from neutropenic subject with AML or MDS pharynx after 12 days of prophylaxis by broth microdilution method
[13] = system: Nakaseomyces glabratus; test: Antifungal activity against -2 days cultured Candida glabrata isolated from HSCT recipient with acute or chronic GVHD mouth receiving antifungal therapy for 168 days after 113 days of prophylaxis by broth microdilution method
[14] = system: Candida albicans; test: Antifungal activity against Candida albicans isolated from HSCT recipient 928 with acute or chronic GVHD mouth after 112 days prophylaxis by broth microdilution method
[15] = system: Candida albicans; test: Antifungal activity against Candida albicans isolated from HSCT recipients with acute or chronic GVHD receiving fluconazole assessed as maximum MIC by broth microdilution method
[16] = system: Nakaseomyces glabratus; test: Antifungal activity against Candida glabrata isolated from neutropenic subject 1491 with AML or MDS pharynx receiving antifungal drug after 23 days prophylaxis by broth microdilution method; details: 552 h
[17] = system: Pichia kudriavzevii; test: Antifungal activity against Candida krusei isolated from neutropenic subjects with AML or MDS prior to initiation of fluconazole therapy assessed as maximum MIC by broth microdilution method
[18] = system: Nakaseomyces glabratus; test: Antifungal activity against 12 days cultured Candida glabrata isolated from HSCT recipient with acute or chronic GVHD mouth receiving antifungal therapy for 143 days after 116 days of prophylaxis by broth microdilution method
[19] = system: Nakaseomyces glabratus; test: Antifungal activity against 36 days cultured Candida glabrata isolated from neutropenic subject with AML or MDS pharynx after 48 days of prophylaxis by broth microdilution method
[20] = system: Nakaseomyces glabratus; test: Antifungal activity against 10 days cultured Candida glabrata isolated from neutropenic subject with AML or MDS stool receiving antifungal therapy for 37 days after 9 days of prophylaxis by broth microdilution method
[21] = system: Candida albicans; test: Antifungal activity against Candida albicans isolated from HSCT recipients with acute or chronic GVHD prior to initiation of fluconazole therapy by broth microdilution method
[22] = system: Nakaseomyces glabratus; test: Antifungal activity against Candida glabrata isolated from HSCT recipient 975 with acute or chronic GVHD mouth receiving antifungal drug after 112 days prophylaxis by broth microdilution method
[23] = system: Candida albicans; test: Antifungal activity against Candida albicans isolated from neutropenic subjects with AML or MDS prior to initiation of posaconazole therapy by broth microdilution method
[24] = system: Nakaseomyces glabratus; test: Antifungal activity against Candida glabrata isolated from HSCT recipient 270 with acute or chronic GVHD mouth receiving antifungal drug after 108 days prophylaxis by broth microdilution method
[25] = system: Nakaseomyces glabratus; test: Antifungal activity against 43 days cultured Candida glabrata isolated from HSCT recipient with acute or chronic GVHD mouth receiving antifungal therapy for 168 days after 113 days of prophylaxis by broth microdilution method
[26] = system: Nakaseomyces glabratus; test: Antifungal activity against Candida glabrata isolated from HSCT recipient 186 with acute or chronic GVHD mouth after 112 days prophylaxis by broth microdilution method
[27] = system: Nakaseomyces glabratus; test: Antifungal activity against Candida glabrata isolated from neutropenic subjects with AML or MDS receiving posaconazole assessed as maximum MIC by broth microdilution method
[28] = system: Nakaseomyces glabratus; test: Antifungal activity against Candida glabrata isolated from neutropenic subjects with AML or MDS receiving fluconazole by broth microdilution method
[29] = system: Nakaseomyces glabratus; test: Antifungal activity against Candida glabrata isolated from neutropenic subject 1102 with AML or MDS stool after 26 days prophylaxis by broth microdilution method; details: 624 h
[30] = system: Nakaseomyces glabratus; test: Antifungal activity against Candida glabrata isolated from HSCT recipient 270 with acute or chronic GVHD mouth after 108 days prophylaxis by broth microdilution method
[31] = system: Pichia kudriavzevii; test: Antifungal activity against 16 days cultured Candida krusei isolated from neutropenic subject with AML or MDS stool receiving antifungal therapy for 19 days after 6 days of prophylaxis by broth microdilution method
[32] = system: Nakaseomyces glabratus; test: Antifungal activity against Candida glabrata isolated from neutropenic subject 1491 with AML or MDS pharynx after 23 days prophylaxis by broth microdilution method; details: 552 h
[33] = system: Candida albicans; test: Antifungal activity against Candida albicans isolated from HSCT recipients with acute or chronic GVHD prior to initiation of fluconazole therapy assessed as maximum MIC by broth microdilution method
[34] = system: Nakaseomyces glabratus; test: Antifungal activity against Candida glabrata isolated from HSCT recipients with acute or chronic GVHD prior to initiation of posaconazole therapy by broth microdilution method
[35] = system: Pichia kudriavzevii; test: Antifungal activity against 19 days cultured Candida krusei isolated from invasive fungal infected subject blood receiving antifungal therapy for 19 days after 6 days of prophylaxis by broth microdilution method
[36] = system: Candida albicans; test: Antifungal activity against Candida albicans isolated from HSCT recipient 262 with acute or chronic GVHD mouth receiving antifungal drug after 115 days prophylaxis by broth microdilution method
[37] = system: Nakaseomyces glabratus; test: Antifungal activity against 1 day cultured Candida glabrata isolated from HSCT recipient with acute or chronic GVHD mouth receiving antifungal therapy for 143 days after 116 days of prophylaxis by broth microdilution method
[38] = system: Nakaseomyces glabratus; test: Antifungal activity against 3 days cultured Candida glabrata isolated from neutropenic subject with AML or MDS stool receiving antifungal therapy for 25 days after 3 days of prophylaxis by broth microdilution method
[39] = system: Candida albicans; test: Antifungal activity against Candida albicans isolated from HSCT recipients with acute or chronic GVHD receiving fluconazole by broth microdilution method

CC[C@@H]([C@H](C)O)n1ncn(-c2ccc(N3CCN(c4ccc(OC[C@@H]5CO[C@@](Cn6cncn6)(c6ccc(F)cc6F)C5)cc4)CC3)cc2)c1=O [POSACONAZOLE]
MIC [1]: 1 µg/mL (≈ 1.43 µM)
MIC [2]: 0.25 µg/mL (≈ 0.357 µM)
MIC [3]: 16 µg/mL
MIC [4]: 0.125 µg/mL (≈ 0.178 µM)
MIC [5]: < 0.015 µg/mL
MIC [6]: < 0.015 µg/mL
MIC [7]: 0.5 µg/mL (≈ 0.713 µM)
MIC [8]: 8 µg/mL
MIC [9]: 2 µg/mL (≈ 2.85 µM)
MIC [10]: 1 µg/mL (≈ 1.43 µM)
MIC [11]: 2 µg/mL (≈ 2.85 µM)
MIC [12]: 0.125 µg/mL (≈ 0.178 µM)
MIC [13]: 1 µg/mL (≈ 1.43 µM)
MIC [14]: < 0.015 µg/mL
MIC [15]: 16 µg/mL
MIC [16]: 8 µg/mL (≈ 11.4 µM)
MIC [17]: 0.25 µg/mL
MIC [18]: 2 µg/mL (≈ 2.85 µM)
MIC [19]: 1 µg/mL (≈ 1.43 µM)
MIC [20]: 1 µg/mL (≈ 1.43 µM)
MIC50 [21]: 0.016 µg/mL (≈ 0.0228 µM)
MIC90 [21]: 0.03 µg/mL (≈ 0.0428 µM)
MIC [22]: 4 µg/mL (≈ 5.71 µM)
MIC50 [23]: 0.015 µg/mL (≈ 0.0214 µM)
MIC90 [23]: 0.015 µg/mL (≈ 0.0214 µM)
MIC [24]: 1 µg/mL (≈ 1.43 µM)
MIC [25]: 2 µg/mL (≈ 2.85 µM)
MIC [26]: 0.25 µg/mL (≈ 0.357 µM)
MIC [27]: 8 µg/mL
MIC50 [28]: 0.5 µg/mL (≈ 0.713 µM)
MIC90 [28]: 1 µg/mL (≈ 1.43 µM)
MIC [29]: 0.25 µg/mL (≈ 0.357 µM)
MIC [30]: 0.06 µg/mL (≈ 0.0856 µM)
MIC [31]: 0.25 µg/mL (≈ 0.357 µM)
MIC [32]: 0.5 µg/mL (≈ 0.713 µM)
MIC [33]: 0.06 µg/mL
MIC50 [34]: 0.5 µg/mL (≈ 0.713 µM)
MIC90 [34]: 4 µg/mL (≈ 5.71 µM)
MIC [35]: 0.06 µg/mL (≈ 0.0856 µM)
MIC [36]: < 0.015 µg/mL
MIC [37]: 0.5 µg/mL (≈ 0.713 µM)
MIC [38]: 0.5 µg/mL (≈ 0.713 µM)
MIC50 [39]: 0.03 µg/mL (≈ 0.0428 µM)
MIC90 [39]: 16 µg/mL (≈ 22.8 µM)
